Literature values as cited in article PMC10125900 (The Journal of General Physiology, 2023).

Key:
GluN3A ABD = details: ref Furukawa and Gouaux, 2003; Yao and Mayer, 2006
GluN1^FA+TL/3A = details: read-out: glycine potency at GluN3A, EC50; ref Kvist et al., 2013a
GluN1/2A–D receptors = details: read-out: glycine potency at GluN1, EC50; ref Hansen et al., 2021

EC50 (GluN1^FA+TL/3A): 60 µM
EC50 (GluN1/2A–D receptors): 0.1 to 1 µM
Compound: NCC(=O)O [glycine]
higher affinity for isolated GluN3A ABD compared to isolated GluN1 ABD (GluN3A ABD): 650 fold
